The record followed here is article PMC8770261, “Automatic Production and Preliminary PET Imaging of a New Imaging Agent [^18F]AlF-FAPT” (Frontiers in Oncology, 2022).

The data set in a line: Biological distribution in normal Kunming mice (γ counter, %ID/g). The data set is classed as in vivo. Particulars: tail vein injection, 60 min. The procedure: The biological distribution experiment of [^18F]AlF-FAPT was carried out in normal Kunming mice. Twenty Kunming mice were randomly and equally divided into four groups and each injected with 0.1 ml of [^18F]AlF-FAPT (1.48~2.22 MBq) through their tail vein. The mice were then sacrificed after 5, 30, 60, and 90 minutes, followed by weighing their organs and determining the radioactivity using a γ counter. The radioactivity of each organ was normalized using the percentage of injected dose per gram of tissue (% ID/g). [^18F]FAPI-42 also used the same method mentioned above to carry out the biological distribution at the time point of 60 minutes.

Take `N#C[C@@H]1CC(F)(F)CN1C(=O)CNC(=O)c1ccnc2ccc(OCCCN3CCN(C(=O)CN4CCN5CCN(CC4)CC(=O)[O][Al]([F])[O]C(=O)C5)CC3)cc12` [[^18F]FAPI-42]: the “radioactivity uptake value in the gallbladder” value was 7.30 ± 1.43 %ID/g.
